Data reported in patent US20100099561A1, “HETEROBICYCLIC ALKYLTHIO-BRIDGED ISOXAZOLINES” (E.I. DU PONT DE NEMOURS AND COMPANY, priority 2008, published 2010).

Key:
Format in all cases: in vivo
[1] = system: barnyardgrass (Echinochloa crus-galli); assay: Test A preemergence, barnyardgrass; settings: 0 to 100 scale (0 no effect, 100 complete control)
Excerpt: (§1) Seeds of barnyardgrass (Echinochloa crus-galli), large crabgrass (Digitaria sanguinalis), giant foxtail (Setaria faberi), morningglory (Ipomoea spp.), pigweed (Amaranthus retroflexus), velvetleaf (Abutilon theophrasti), wheat (Triticum aestivum), and corn (Zea mays) were planted into a blend of loam soil and sand and treated preemergence with a directed soil spray using test chemicals formulated in a non-phytotoxic solvent mixture which included a surfactant. At the same time these species were also treated with postemergence applications of test compounds formulated in the same manner. Plants ranged in height from two to ten cm and were in the one- to two-leaf stage for the postemergence treatment. Treated plants and untreated controls were maintained in a greenhouse for approximately ten days, after which time all treated plants were compared to untreated controls and visually evaluated for injury. Plant response ratings, summarized in Table A, are based on a 0 to 100 scale where 0 is no effect and 100 is complete control. A dash (-) response means no test result.

[2] = system: large crabgrass (Digitaria sanguinalis); assay: Test A preemergence, large crabgrass; settings: 0 to 100 scale (0 no effect, 100 complete control)
Excerpt: as §1

[3] = system: giant foxtail (Setaria faberi); assay: Test A preemergence, giant foxtail; settings: 0 to 100 scale (0 no effect, 100 complete control)
Excerpt: as §1

[4] = system: morningglory (Ipomoea spp.); assay: Test A preemergence, morningglory; settings: 0 to 100 scale (0 no effect, 100 complete control)
Excerpt: as §1

[5] = system: pigweed (Amaranthus retroflexus); assay: Test A preemergence, pigweed; settings: 0 to 100 scale (0 no effect, 100 complete control)
Excerpt: as §1

[6] = system: velvetleaf (Abutilon theophrasti); assay: Test A preemergence, velvetleaf; settings: 0 to 100 scale (0 no effect, 100 complete control)
Excerpt: as §1

[7] = system: wheat (Triticum aestivum); assay: Test A preemergence, wheat; settings: 0 to 100 scale (0 no effect, 100 complete control)
Excerpt: as §1

corn (Zea mays) [8] = assay: Test A preemergence, corn; settings: 0 to 100 scale (0 no effect, 100 complete control)
Excerpt: as §1

[9] = system: barnyardgrass (Echinochloa crus-galli); assay: Test A postemergence, barnyardgrass; settings: 0 to 100 scale (0 no effect, 100 complete control)
Excerpt: as §1

[10] = system: large crabgrass (Digitaria sanguinalis); assay: Test A postemergence, large crabgrass; settings: 0 to 100 scale (0 no effect, 100 complete control)
Excerpt: as §1

[11] = system: giant foxtail (Setaria faberi); assay: Test A postemergence, giant foxtail; settings: 0 to 100 scale (0 no effect, 100 complete control)
Excerpt: as §1

[12] = system: morningglory (Ipomoea spp.); assay: Test A postemergence, morningglory; settings: 0 to 100 scale (0 no effect, 100 complete control)
Excerpt: as §1

[13] = system: pigweed (Amaranthus retroflexus); assay: Test A postemergence, pigweed; settings: 0 to 100 scale (0 no effect, 100 complete control)
Excerpt: as §1

[14] = system: velvetleaf (Abutilon theophrasti); assay: Test A postemergence, velvetleaf; settings: 0 to 100 scale (0 no effect, 100 complete control)
Excerpt: as §1

[15] = system: wheat (Triticum aestivum); assay: Test A postemergence, wheat; settings: 0 to 100 scale (0 no effect, 100 complete control)
Excerpt: as §1

corn (Zea mays) [16] = assay: Test A postemergence, corn; settings: 0 to 100 scale (0 no effect, 100 complete control)
Excerpt: as §1

rice (Oryza sativa) = assay: Test B flooded paddy test, rice; settings: Flood, scale 0 to 100
Excerpt: (§2) Plant species in the flooded paddy test consisted of rice (Oryza sativa), umbrella sedge (Cyperus difformis), ducksalad (Heteranthera limosa) and barnyardgrass (Echinochloa crus-galli) grown to the 2-leaf stage for testing. At time of treatment, test pots were flooded to 3 cm above the soil surface, treated by application of test compounds directly to the paddy water, and then maintained at that water depth for the duration of the test. Treated plants and controls were maintained in a greenhouse for 13 to 15 days, after which time all species were compared to controls and visually evaluated. Plant response ratings, summarized in Table B, are based on a scale of 0 to 100 where 0 is no effect and 100 is complete control. A dash (-) response means no test result.

[17] = system: umbrella sedge (Cyperus difformis); assay: Test B flooded paddy test, umbrella sedge; settings: Flood, scale 0 to 100
Excerpt: as §2

[18] = system: ducksalad (Heteranthera limosa); assay: Test B flooded paddy test, ducksalad; settings: Flood, scale 0 to 100
Excerpt: as §2

[19] = system: barnyardgrass (Echinochloa crus-galli); assay: Test B flooded paddy test, barnyardgrass; settings: Flood
Excerpt: as §2

[20] = 250 g ai/ha, scale 0 to 100 (0 no effect, 100 complete control)

CCn1c(=O)c(CS(=O)(=O)C2=NOC(C)(C)C2)nc2ccccc21 [Compound 28]
Plant response rating, Barnyardgrass ([1]; 125 g ai/ha): 0 | Plant response rating, Barnyardgrass ([1]; 500 g ai/ha): 10 | Plant response rating, Crabgrass, Large ([2]; 125 g ai/ha): 40 | Plant response rating, Crabgrass, Large ([2]; 500 g ai/ha): 50 | Plant response rating, Foxtail, Giant ([3]; 125 g ai/ha): 0 | Plant response rating, Foxtail, Giant ([3]; 500 g ai/ha): 20 | Plant response rating, Morningglory ([4]; 125 g ai/ha): 0 | Plant response rating, Morningglory ([4]; 500 g ai/ha): 0 | Plant response rating, Pigweed ([5]; 125 g ai/ha): 0 | Plant response rating, Pigweed ([5]; 500 g ai/ha): 0 | Plant response rating, Velvetleaf ([6]; 125 g ai/ha): 0 | Plant response rating, Velvetleaf ([6]; 500 g ai/ha): 0 | Plant response rating, Wheat ([7]; 125 g ai/ha): 0 | Plant response rating, Wheat ([7]; 500 g ai/ha): 0 | Plant response rating, Corn (corn (Zea mays) [8]; 125 g ai/ha): 0 | Plant response rating, Corn (corn (Zea mays) [8]; 500 g ai/ha): 0 | Plant response rating, Barnyardgrass ([9]; 125 g ai/ha): 30 | Plant response rating, Barnyardgrass ([9]; 500 g ai/ha): 40 | Plant response rating, Crabgrass, Large ([10]; 125 g ai/ha): 0 | Plant response rating, Crabgrass, Large ([10]; 500 g ai/ha): 50 | Plant response rating, Foxtail, Giant ([11]; 125 g ai/ha): 0 | Plant response rating, Foxtail, Giant ([11]; 500 g ai/ha): 0 | Plant response rating, Morningglory ([12]; 125 g ai/ha): 0 | Plant response rating, Morningglory ([12]; 500 g ai/ha): 0 | Plant response rating, Pigweed ([13]; 125 g ai/ha): 0 | Plant response rating, Pigweed ([13]; 500 g ai/ha): 0 | Plant response rating, Velvetleaf ([14]; 125 g ai/ha): 0 | Plant response rating, Velvetleaf ([14]; 500 g ai/ha): 0 | Plant response rating, Wheat ([15]; 125 g ai/ha): 0 | Plant response rating, Wheat ([15]; 500 g ai/ha): 0 | Plant response rating, Corn (corn (Zea mays) [16]; 125 g ai/ha): 0 | Plant response rating, Corn (corn (Zea mays) [16]; 500 g ai/ha): 0 | Plant response rating, Rice (rice (Oryza sativa); 31 g ai/ha): 0 | Plant response rating, Rice (rice (Oryza sativa); 62 g ai/ha): 0 | Plant response rating, Rice (rice (Oryza sativa); 125 g ai/ha): 0 | Plant response rating, Rice (rice (Oryza sativa); 250 g ai/ha): 0 | Plant response rating, Sedge, Umbrella ([17]; 31 g ai/ha): 0 | Plant response rating, Sedge, Umbrella ([17]; 62 g ai/ha): 0 | Plant response rating, Sedge, Umbrella ([17]; 125 g ai/ha): 0 | Plant response rating, Sedge, Umbrella ([17]; 250 g ai/ha): 0 | Plant response rating, Ducksalad ([18]; 31 g ai/ha): 0 | Plant response rating, Ducksalad ([18]; 62 g ai/ha): 0 | Plant response rating, Ducksalad ([18]; 125 g ai/ha): 0 | Plant response rating, Ducksalad ([18]; 250 g ai/ha): 0 | Plant response rating, Barnyardgrass ([19]; 31 g ai/ha, scale 0 to 100): 0 | Plant response rating, Barnyardgrass ([19]; 62 g ai/ha, scale 0 to 100): 0 | Plant response rating, Barnyardgrass ([19]; 125 g ai/ha, scale 0 to 100): 0 | Plant response rating, Barnyardgrass [19, 20]: 0

CCn1c(=O)c(C[S+]([O-])C2=NOC(C)(C)C2)nc2ccccc21 (centres unmarked) [Compound 29]
Plant response rating, Barnyardgrass ([1]; 125 g ai/ha): 0 | Plant response rating, Barnyardgrass ([1]; 500 g ai/ha): 0 | Plant response rating, Crabgrass, Large ([2]; 125 g ai/ha): 0 | Plant response rating, Crabgrass, Large ([2]; 500 g ai/ha): 0 | Plant response rating, Foxtail, Giant ([3]; 125 g ai/ha): 0 | Plant response rating, Foxtail, Giant ([3]; 500 g ai/ha): 0 | Plant response rating, Morningglory ([4]; 125 g ai/ha): 0 | Plant response rating, Morningglory ([4]; 500 g ai/ha): 0 | Plant response rating, Pigweed ([5]; 125 g ai/ha): 0 | Plant response rating, Pigweed ([5]; 500 g ai/ha): 0 | Plant response rating, Velvetleaf ([6]; 125 g ai/ha): 0 | Plant response rating, Velvetleaf ([6]; 500 g ai/ha): 0 | Plant response rating, Wheat ([7]; 125 g ai/ha): 0 | Plant response rating, Wheat ([7]; 500 g ai/ha): 0 | Plant response rating, Corn (corn (Zea mays) [8]; 125 g ai/ha): 0 | Plant response rating, Barnyardgrass ([9]; 125 g ai/ha): 10 | Plant response rating, Barnyardgrass ([9]; 500 g ai/ha): 20 | Plant response rating, Crabgrass, Large ([10]; 125 g ai/ha): 0 | Plant response rating, Crabgrass, Large ([10]; 500 g ai/ha): 0 | Plant response rating, Foxtail, Giant ([11]; 125 g ai/ha): 0 | Plant response rating, Foxtail, Giant ([11]; 500 g ai/ha): 0 | Plant response rating, Morningglory ([12]; 125 g ai/ha): 0 | Plant response rating, Morningglory ([12]; 500 g ai/ha): 0 | Plant response rating, Pigweed ([13]; 125 g ai/ha): 0 | Plant response rating, Pigweed ([13]; 500 g ai/ha): 0 | Plant response rating, Velvetleaf ([14]; 125 g ai/ha): 0 | Plant response rating, Velvetleaf ([14]; 500 g ai/ha): 0 | Plant response rating, Wheat ([15]; 125 g ai/ha): 0 | Plant response rating, Wheat ([15]; 500 g ai/ha): 0 | Plant response rating, Corn (corn (Zea mays) [16]; 125 g ai/ha): 0 | Plant response rating, Corn (corn (Zea mays) [16]; 500 g ai/ha): 0 | Plant response rating, Rice (rice (Oryza sativa); 31 g ai/ha): 0 | Plant response rating, Rice (rice (Oryza sativa); 62 g ai/ha): 0 | Plant response rating, Rice (rice (Oryza sativa); 125 g ai/ha): 0 | Plant response rating, Rice (rice (Oryza sativa); 250 g ai/ha): 0 | Plant response rating, Sedge, Umbrella ([17]; 31 g ai/ha): 0 | Plant response rating, Sedge, Umbrella ([17]; 62 g ai/ha): 0 | Plant response rating, Sedge, Umbrella ([17]; 125 g ai/ha): 0 | Plant response rating, Sedge, Umbrella ([17]; 250 g ai/ha): 0 | Plant response rating, Ducksalad ([18]; 31 g ai/ha): 0 | Plant response rating, Ducksalad ([18]; 62 g ai/ha): 0 | Plant response rating, Ducksalad ([18]; 125 g ai/ha): 0 | Plant response rating, Ducksalad ([18]; 250 g ai/ha): 20 | Plant response rating, Barnyardgrass ([19]; 31 g ai/ha, scale 0 to 100): 0 | Plant response rating, Barnyardgrass ([19]; 62 g ai/ha, scale 0 to 100): 0 | Plant response rating, Barnyardgrass ([19]; 125 g ai/ha, scale 0 to 100): 0 | Plant response rating, Barnyardgrass [19, 20]: 0
